Assay results published in paper PMC9021288 (Nature Communications, 2022).
Read-outs that look alike come from different tables or passages of the source.

Assays:
[1] = system: P. falciparum NF54 asexual blood-stage parasites; experiment: 72-h asexual blood-stage replication assay (SYBR Green); assay type: cell-based, Plasmodium falciparum; settings: asexual blood stages NF54 parasites; read-out: IC50
Description: Replication assays were performed using a SYBR Green method as described previously. Briefly, asynchronous parasites were diluted to 0.83% parasitemia, 3% hematocrit in 30 µl medium, and added to 30 µl of diluted compounds in medium (0.1% DMSO final concentration) in black 384-wells plates. After a 72-h incubation, 30 µl of SYBR Green diluted in lysis buffer was added according to the manufacturer’s protocol (Life Technologies). Fluorescence intensity was measured on a BioTek Synergy 2 Plate Reader after 1-h incubation and was normalized to a DMSO control (100% growth) and DHA- or epoxomicin-treatment (no growth). […] Parasite survival was assessed by flow cytometry on an Accuri C6 (BD Biosciences) with BD C6 Plus software using SYBR Green and MitoTracker Deep Red FM (Life Technologies) as nuclear stain and vital dye, respectively, and data were analyzed using FlowJo (10.5.0). […] Luminescence was measured after 72 h using the Renilla-Glo(R) Luciferase Assay System (Promega E2750) and the GlomAX® Discover Multimode Microplate Reader (Promega). The luminescence values were normalized to DMSO vehicle (100% growth) and 200 nM chloroquine-treated (no growth) samples as controls.
Dose-response assays were analyzed by a nonlinear regression using a four-parameter model and the least squares method to find the best fit. One-way Analysis of variance (ANOVA) was performed using the Bonferroni’s Multiple Comparison Test. For the majority of experiments, 2-4 biological replicates were performed. Typically, 2 replicates were performed for screening activities, and a minimum of 3 replicates are performed for other experiments unless stated otherwise.

[2] = system: TA98, TA100, TA102, TA1535, TA1537; settings: positive control
Description: Safety studies were performed by commercial services using their standard protocols. […] Genotoxicity was investigated using the Ames test (Bacterial Reverse Mutation Assay) (Covance Laboratories Ltd, North Yorkshire, England). In vitro mammalian cell micronucleus screening assay was studied in human peripheral blood lymphocytes (BioReliance Corporation, Rockville, USA). Cardiotoxicity was determined against the hERG channel in an automated patch clamp assay using the Qpatch or against the hNaV 1.5, hKV 1.5 and hCaV 1.2 using a manual patch-clamp technique (Metrion Biosciences, Cambridge, UK). Cytotoxicity in human and rat primary hepatocytes was assessed using the CellTiter-Blue assay performed by commercial services (KaLy-Cell). The viability of HepG2 cells was monitored through the addition of 1 mM resazurin. Following 6 h incubation, the relative amount of reduced resazurin was detected in a fluorimeter and compared to the assay controls (vehicle: 0.1% DMSO and positive control: 10 µM puromycin).

| SMILES | IC50 [1] | other results |
| --- | --- | --- |
| C[C@H](CNC(=O)[C@@H](O)C(C)(C)CO)NC(=O)CCc1ccccc1F [MMV884968] | > 1 µM | – |
| C[C@@H](CNC(=O)C(=O)C(C)(C)CO)NC(=O)CCc1ccccc1F [MMV1545786] | 1 µM | – |
| Cc1ccccc1C(=O)N[C@@H](C)CNC(=O)[C@H](O)C(C)(C)CO [MMV1542005] | > 10 µM | – |
| COc1cccc(C(=O)N[C@@H](C)CNC(=O)[C@H](O)C(C)(C)CO)c1 [MMV892811] | 0.032 µM | – |
| CC[C@@H](CNC(=O)[C@H](O)C(C)(C)CO)NC(=O)CCc1ccccc1F [MMV692676] | 0.122 µM | – |
| C[C@@H](CNC(=O)[C@H](O)C(C)(C)CO)NC(=O)c1cccc(N(C)C)c1 [MMV884970] | > 10 µM | – |
| C[C@@H](CNC(=O)[C@H](O)C(C)(C)CO)NC(=O)c1cc(Cl)ccc1F [MMV1576728] | 0.0026 µM | – |
| C[C@@H](CNC(=O)[C@H](O)C(C)(C)CO)NC(=O)c1ccc[nH]1 [MMV893345] | > 10 µM | – |
| Cc1ccc(C(=O)N[C@@H](C)CNC(=O)[C@H](O)C(C)(C)CO)cc1 [MMV1542100] | 0.085 µM | – |
| C[C@@H](CNC(=O)[C@H](O)C(C)(C)CO)NC(=O)c1cc(Cl)c(Cl)cc1F [MMV893655] | 0.0197 µM | – |
| C[C@@H](CNC(=O)[C@H](O)C(C)(C)CO)NC(=O)c1c(F)cccc1F [MMV693185] | 0.478 µM | – |
| C[C@@H](CNC(=O)[C@H](O)C(C)(C)CO)c1nnc(CCc2ccccc2F)[nH]1 [MMV884788] | 0.554 µM | – |
| C[C@@H](CNC(=O)[C@H](O)C(C)(C)CO)NC(=O)c1cc(F)ccc1F [MMV1576724] | 0.007 µM | – |
| CCC(CC)(CO)[C@@H](O)C(=O)NC[C@H](C)NC(=O)CCc1ccccc1F [MMV884964] | > 1 µM | – |
| C[C@@H](CNC(=O)[C@H](O)C(C)(C)CO)NC(=O)c1cccc(C#N)c1F [MMV977410] | 0.019 µM | – |
| C[C@@H](CNC(=O)[C@H](O)C(C)(C)CO)NC(=O)c1ccc(C#N)cc1 [MMV884961] | 0.535 µM | – |
| C[C@@H](CNC(=O)[C@H](O)C(C)(C)CO)NC(=O)c1ccccc1F [MMV154200] | 0.041 µM | – |
| [N-]=[N+]=[N-].[Na+] [NaN3] | – | Fold Increase ([2]; TA100, -S-9, 2 ug/plate): 9.7; Mean (Revertant Numbers Per Plate) ([2]; TA100, -S-9, 2 ug/plate): 845; Fold Increase ([2]; TA1535, -S-9, 2 ug/plate): 26.6; Mean (Revertant Numbers Per Plate) ([2]; TA1535, -S-9, 2 ug/plate): 672.7 |
| O=[N+]([O-])c1ccc2c(c1)Cc1ccccc1-2 [Compound 2NF] | – | Fold Increase ([2]; TA98, -S-9, 5 ug/plate): 49.1; Mean (Revertant Numbers Per Plate) ([2]; TA98, -S-9, 5 ug/plate): 1375.7 |
| COc1ccc(C(=O)N[C@@H](C)CNC(=O)[C@H](O)C(C)(C)CO)cc1 [MMV892810] | 0.344 µM | – |

| SMILES | IC50 [1] | other results |
| --- | --- | --- |
| C[C@@H](CNC(=O)[C@H](O)C(C)(C)CO)NC(=O)c1ccoc1 [MMV893339] | 0.042 µM | – |
| C[C@@H](CNC(=O)[C@H](O)C(C)(C)CO)NC(=O)c1ccc(F)c(C#N)c1 [MMV977409] | 0.084 µM | – |
| C[C@@H](CNC(=O)[C@H](O)C(C)(C)CO)NC(=O)c1ccc(Cl)cc1 [MMV892809] | 0.103 µM | – |
| C[C@@H](CNC(=O)[C@H](O)C(C)(C)CO)NC(=O)c1cccc(Cl)c1 [MMV892808] | 0.0023 µM | – |
| Cc1cccc(C(=O)N[C@@H](C)CNC(=O)[C@H](O)C(C)(C)CO)c1 [MMV1542099] | 0.022 µM | – |
| Nc1ccc2cc3ccccc3cc2c1 [AAN] | – | Fold Increase ([2]; TA100, +S-9, 5 ug/plate): 21.6; Mean (Revertant Numbers Per Plate) ([2]; TA100, +S-9, 5 ug/plate): 2606; Fold Increase ([2]; TA102, +S-9, 20 ug/plate): 11; Mean (Revertant Numbers Per Plate) ([2]; TA102, +S-9, 20 ug/plate): 2462; Fold Increase ([2]; TA1535, +S-9, 5 ug/plate): 7.5; Mean (Revertant Numbers Per Plate) ([2]; TA1535, +S-9, 5 ug/plate): 173.3; Fold Increase ([2]; TA1537, +S-9, 5 ug/plate): 39.7; Mean (Revertant Numbers Per Plate) ([2]; TA1537, +S-9, 5 ug/plate): 277.7 |
| COc1ccccc1C(=O)N[C@@H](C)CNC(=O)[C@H](O)C(C)(C)CO [MMV892812] | > 10 µM | – |
| C[C@@H](CNC(=O)[C@H](O)C(C)(C)CO)NC(=O)c1c[nH]c2ccccc12 [MMV893375] | 0.041 µM | – |
| C[C@@H](CNC(=O)[C@H](O)C(C)(C)CO)NC(=O)c1cccc(F)c1F [MMV1576723] | 0.0327 µM | – |
| CC(C)(CNC(=O)CCc1ccccc1F)NC(=O)[C@H](O)C(C)(C)CO [MMV689261] | > 10 µM | – |
| C[C@@H](CNC(=O)[C@H](O)C(C)(C)CO)NC(=O)c1csc2ccccc12 [MMV893338] | 0.195 µM | – |
| C[C@@H](CNC(=O)[C@H](O)C(C)(C)CO)NC(=O)c1cccs1 [MMV893344] | 0.0182 µM | – |
| C[C@@H](CNC(=O)[C@H](O)C(C)(C)CNS(C)(=O)=O)NC(=O)CCc1ccccc1F [MMV1545779] | > 1 µM | – |
| Nc1c2ccccc2nc2ccccc12 [AAC] | – | Fold Increase ([2]; TA1537, -S-9, 50 ug/plate): 54.9; Mean (Revertant Numbers Per Plate) ([2]; TA1537, -S-9, 50 ug/plate): 384.3 |
| C[C@@H](CNC(=O)[C@H](O)C(C)(C)CO)NC(=O)c1cc(Cl)c(F)cc1F [MMV692009] | 0.0023 µM | – |
| C[C@@H](CNC(=O)[C@H](O)C(C)(C)CO)NS(=O)(=O)CCc1ccccc1 [MMV692748] | > 10 µM | – |
| C[C@@H](CNC(=O)[C@H](O)C(C)(C)CO)NC(=O)c1ccc(Cl)c(F)c1 [MMV1576725] | 0.056 µM | – |
| C[C@@H](CNC(=O)[C@H](O)C(C)(C)CO)NC(=O)c1coc2ccccc12 [MMV893337] | 0.0039 µM | – |
| C[C@@H](CNC(=O)[C@H](O)C(C)(C)CO)NC(=O)c1cccc(C(F)(F)F)c1 [MMV892614] | 0.143 µM | – |
| CO[C@@]12[C@H](COC(N)=O)C3=C(C(=O)C(C)=C(N)C3=O)N1C[C@@H]1N[C@@H]12 [MMC] | – | Fold Increase ([2]; TA102, -S-9, 0.2 ug/plate): 3.3 |

| SMILES | IC50 [1] | other results |
| --- | --- | --- |
| C[C@@H](CNC(=O)[C@H](O)C(C)(C)CO)NC(=O)c1ccc(C(F)(F)F)cc1 [MMV892612] | 0.132 µM | – |
| C[C@@H](CNC(=O)[C@H](O)C(C)(C)CO)NC(=O)c1cc2ccccc2s1 [MMV893336] | 0.0199 µM | – |
| C[C@@H](CNC(=O)[C@H](O)C(C)(C)CO)NC(=O)c1ccc(F)c(F)c1 [MMV1576731] | 0.0046 µM | – |
| C[C@@H](CNC(=O)[C@H](O)C(C)(C)CO)NC(=O)c1cccc(Cl)c1F [MMV977411] | 0.012 µM | – |
| C[C@@H](CNC(=O)[C@H](O)C(C)(C)CO)NC(=O)c1cc2ccccc2[nH]1 [MMV893121] | 0.053 µM | – |
| C[C@@H](CNC(=O)[C@H](O)C(C)(C)CO)NC(=O)c1ccc(F)cc1 [MMV1542002] | 0.082 µM | – |
| C[C@@H](CNC(=O)[C@H](O)C(C)(C)CO)NC(=O)c1cccc(F)n1 [MMV892814] | > 10 µM | – |
| CC(C)(CNC(=O)[C@H](O)C(C)(C)CO)NC(=O)CCc1ccccc1F [MMV689455] | 1.19 µM | – |
| C[C@@H](CNC(=O)[C@H](O)C(C)(C)CO)NC(=O)c1ccc(F)c(Cl)c1 [MMV977407] | 0.0034 µM | – |
| C[C@@H](CNC(=O)[C@H](O)C(C)(C)CO)NC(=O)c1ccccc1Cl [MMV892807] | > 10 µM | – |
| C[C@@H](CNC(=O)[C@@H](O)C(C)(C)CO)NC(=O)CCc1ccccc1F [MMV884787] | 0.235 µM | – |
| C[C@@H](CNC(=O)[C@H](O)C(C)(C)CO)NC(=O)c1ccsc1 [MMV893340] | 0.0146 µM | – |
| CC(CNC(=O)C(C)(O)C(C)(C)CO)NC(=O)CCc1ccccc1F (mixture of isomers) [MMV1545785] | 1 µM | – |
| C[C@@H](CNC(=O)[C@H](O)C(C)(C)CO)NC(=O)c1ccccc1C(F)(F)F [MMV892613] | > 10 µM | – |
| C[C@@H](CNC(=O)[C@H](O)C(C)(C)CO)NC(=O)c1cccc(S(C)(=O)=O)c1 [MMV884969] | > 10 µM | – |
| C[C@@H](CNC(=O)[C@H](O)C(C)(C)CO)NC(=O)c1cc[nH]c1 [MMV893376] | 1.8 µM | – |
| C[C@H](CNC(=O)[C@H](O)C(C)(C)CO)NC(=O)CCc1ccccc1F [MMV689260] | 0.21 µM | – |
| Cc1cc(C(=O)N[C@@H](C)CNC(=O)[C@H](O)C(C)(C)CO)c(F)cc1F [MMV893115] | 0.066 µM | – |
| C[C@@H](CNC(=O)[C@H](O)C(C)(C)CO)NC(=O)c1cc2ccccc2o1 [MMV893335] | 0.0125 µM | – |
